For assay [1], the target named is σ1 (Rattus norvegicus, UniProt Q9R0C9). Nature of the assay: NIMH PDSP radioligand competition binding, σ1.
The subject of assay [2] is head twitch response (5-HT2A receptor-mediated). Nature of the assay: Head twitch response. The format is in vivo, C57BL/6J mice. As to conditions: for activity in the HTR assay (in words): C57BL/6J mice, IP, within the dose range tested; for ED50: Mus musculus, ip.
The target of assay [3] is T1, α2C (Homo sapiens, UniProt P18825).
T1 sequence (P18825 1-462): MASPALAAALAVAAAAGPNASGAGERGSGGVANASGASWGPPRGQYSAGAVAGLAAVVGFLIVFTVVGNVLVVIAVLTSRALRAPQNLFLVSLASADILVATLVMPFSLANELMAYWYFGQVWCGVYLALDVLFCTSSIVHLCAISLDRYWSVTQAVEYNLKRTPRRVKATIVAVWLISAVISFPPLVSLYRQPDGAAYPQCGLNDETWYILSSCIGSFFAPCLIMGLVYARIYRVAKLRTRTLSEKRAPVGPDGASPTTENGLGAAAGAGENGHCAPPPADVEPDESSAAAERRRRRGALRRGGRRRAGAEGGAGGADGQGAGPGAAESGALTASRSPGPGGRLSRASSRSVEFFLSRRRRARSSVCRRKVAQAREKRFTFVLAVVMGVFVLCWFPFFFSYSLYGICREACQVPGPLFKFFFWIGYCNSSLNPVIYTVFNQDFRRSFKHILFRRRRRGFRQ
Nature of the assay: NIMH PDSP radioligand competition binding, α2C. A general note: Displacement assays read how much labelled ligand stays bound in the presence of the test substance.

The target of assay [4] is D3 (Homo sapiens, UniProt P35462). Nature of the assay: NIMH PDSP radioligand competition binding, D3.
Assay [5] has as its target μ-opioid receptor (MOR) (Homo sapiens, UniProt P35372). Nature of the assay: NIMH PDSP radioligand competition binding, MOR.
The target in assay [6] is T2, σ2 (Rattus norvegicus, UniProt Q5U3Y7).
T2 sequence (Q5U3Y7 1-176): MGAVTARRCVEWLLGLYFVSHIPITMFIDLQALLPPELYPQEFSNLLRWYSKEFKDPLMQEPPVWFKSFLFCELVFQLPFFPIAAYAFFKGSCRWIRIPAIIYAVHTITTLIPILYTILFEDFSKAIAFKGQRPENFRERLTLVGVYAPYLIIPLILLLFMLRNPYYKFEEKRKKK
In words: NIMH PDSP radioligand competition binding, σ2.

Assay [7] addresses serotonin transporter (SERT) (Homo sapiens, UniProt P31645). In words: NIMH PDSP radioligand competition binding, SERT.
For assay [8], the target named is D2 (Homo sapiens, UniProt P14416). Nature of the assay: NIMH PDSP radioligand competition binding, D2.
In assay [9] the target is 5-HT1E (Homo sapiens, UniProt P28566). In words: NIMH PDSP radioligand competition binding, 5-HT1E.
Assay [10] deals with peripheral benzodiazepine receptor (PBR) (Rattus norvegicus, UniProt P16257). Nature of the assay: NIMH PDSP radioligand competition binding, PBR.
Assay [11] addresses δ-opioid receptor (DOR) (Homo sapiens, UniProt P41143). Nature of the assay: NIMH PDSP radioligand competition binding, DOR.
In assay [12] the target is T3, α1A (Homo sapiens, UniProt P35348).
T3 sequence (P35348 1-466): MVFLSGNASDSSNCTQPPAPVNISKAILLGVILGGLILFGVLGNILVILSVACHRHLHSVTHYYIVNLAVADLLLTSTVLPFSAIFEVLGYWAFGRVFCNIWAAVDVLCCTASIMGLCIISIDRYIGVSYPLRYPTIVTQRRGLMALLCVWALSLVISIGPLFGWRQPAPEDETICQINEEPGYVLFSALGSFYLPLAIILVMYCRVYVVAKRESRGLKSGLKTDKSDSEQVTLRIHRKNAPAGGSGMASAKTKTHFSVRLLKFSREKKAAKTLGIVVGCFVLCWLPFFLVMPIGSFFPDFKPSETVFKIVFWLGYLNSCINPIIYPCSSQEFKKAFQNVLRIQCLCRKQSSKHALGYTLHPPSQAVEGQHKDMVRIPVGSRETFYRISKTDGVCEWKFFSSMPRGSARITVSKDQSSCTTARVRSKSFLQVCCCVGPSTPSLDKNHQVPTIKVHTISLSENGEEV
In words: NIMH PDSP radioligand competition binding, α1A.

The target in assay [13] is H3 (Cavia porcellus, UniProt Q9JI35). In words: NIMH PDSP radioligand competition binding, H3. Further details: species or system Guinea pig.
The target in assay [14] is D1 (Homo sapiens, UniProt P21728). Nature of the assay: NIMH PDSP radioligand competition binding, D1.
Assay [15] addresses T4, α2B (Homo sapiens, UniProt P18089).
T4 sequence (P18089 1-450): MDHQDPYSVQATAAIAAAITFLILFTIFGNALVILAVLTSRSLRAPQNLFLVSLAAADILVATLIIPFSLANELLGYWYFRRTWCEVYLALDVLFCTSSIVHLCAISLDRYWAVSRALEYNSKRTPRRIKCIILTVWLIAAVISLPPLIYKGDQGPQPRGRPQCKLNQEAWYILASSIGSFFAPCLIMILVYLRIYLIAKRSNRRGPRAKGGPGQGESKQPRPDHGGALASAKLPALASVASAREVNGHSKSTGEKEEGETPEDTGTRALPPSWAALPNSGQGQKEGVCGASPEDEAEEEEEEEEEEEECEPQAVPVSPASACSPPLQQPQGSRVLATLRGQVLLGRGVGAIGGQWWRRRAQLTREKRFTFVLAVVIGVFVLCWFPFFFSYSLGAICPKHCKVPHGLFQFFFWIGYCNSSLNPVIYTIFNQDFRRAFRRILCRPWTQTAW
Nature of the assay: NIMH PDSP radioligand competition binding, α2B.

Setting [16] is: 0.875 mg/kg IP, duration 30 min.
Where [17] appears, read: Binding Affinity (Ki, nM), PBR, [3H]PK11195, rat kidney, natively expressed.
Setting [18] is: Binding Affinity (Ki, nM), DOR, [3H]DADLE, cloned human receptor.
Where [19] appears, read: Binding Affinity (Ki, nM), [3H]SCH23390, cloned human receptor.
The mark [20] stands for this setting: read-out: ED50 (95% CI) (mg/kg).
The mark [21] stands for this setting: read-out: ED50 (95% CI) (μmol/kg).

Results on five compounds are retold here after PMC6230509 (Neuropharmacology, 2018).

Read-outs that look alike come from different tables or passages of the source.

Usually Ki stands for a dissociation constant, usually derived from enzyme kinetics or from competition with a known ligand. For the compound `C=CCN(CC=C)CCc1c(-c2ccccc2)[nH]c2ccccc12` [2-Ph-DALT, 2-phenyl-N,N-diallyltryptamine], the Ki in assay [1] is greater than 10000 nM; in assay [3], 159 nM; in [4], 342 nM; in assay [5], greater than 10000 nM; in [6], 717 nM; in assay [7] it was greater than 10000 nM. Moreover, the Ki is 388 nM in [8]; greater than 10000 nM in assay [9]; 1930 nM in [10] (setting [17]); less than 10000 nM in [10] (Ki value, peripheral benzodiazepine receptors, bound stated); 6790 nM in [11] (setting [18]); less than 10000 nM in assay [11] (Ki value, δ-opioid, bound stated). The Ki in [12] is 75 nM; in [13], greater than 10000 nM; in assay [14] (setting [19]), 2790 nM; in [14] (Ki value, bound stated), less than 10000 nM; in assay [15], 78 nM. The “HTR Counts (mean ± SEM)” value in assay [2] (setting [16]) is listed as 2.8 ± 0.5; in assay [2] (1.75 mg/kg IP, duration 30 min) it was 3.6 ± 1.3; in assay [2] (3.5 mg/kg IP, duration 30 min) it was 1.4 ± 0.5; in assay [2] (7 mg/kg IP, duration 30 min) it was 2.0 ± 0.5; in [2] (14 mg/kg IP, duration 30 min), 1.2 ± 0.5. Moreover, the entries for the “activity in the HTR assay (in words)” value in assay [2] and in assay [2] (listed as 2-Phenyl-DALT) were “abolished activity” and “did not induce the HTR”, respectively.

Turning to `C=CCN(CC=C)CCc1c[nH]c2cccc(OC(C)=O)c12` [4-AcO-DALT, 4-acetoxy-N,N-diallyltryptamine], the Ki was 299 nM in [1]; 748 nM in assay [3]; greater than 10000 nM in [4]; greater than 10000 nM in [5]; greater than 10000 nM in assay [6]; 1090 nM in [7]. The Ki in [8] is greater than 10000 nM; in assay [9] it was 467 nM; in assay [10] (setting [17]) it was greater than 10000 nM; in assay [11] (setting [18]), greater than 10000 nM; in [12], greater than 10000 nM; in assay [13], greater than 10000 nM. In addition, the Ki in [14] (setting [19]) is greater than 10000 nM; in [15], 170 nM. Also, the “HTR Counts (mean ± SEM)” value in [2] (setting [16]) came out at 10.4 ± 1.4; in assay [2] (1.75 mg/kg IP, duration 30 min), 42.0 ± 9.5; in assay [2] (3.5 mg/kg IP, duration 30 min) it was 39.0 ± 14.1; in assay [2] (7 mg/kg IP, duration 30 min) it was 65.0 ± 8.4; in assay [2] (14 mg/kg IP, duration 30 min), 47.8 ± 10.0. Further, the “activity in the HTR assay (in words)” value in [2] is on record as “active”. Moreover, the figures for the ED50 in assay [2] (setting [20]) and in assay [2] (setting [21]) were 1.99 mg/kg and 4.8 µmol/kg, respectively.

Regarding `C=CCN(CC=C)CCc1c[nH]c2cccc(O)c12` [4-HO-DALT, 4-hydroxy-N,N-diallyltryptamine], the Ki in [1] was 2760 nM; in assay [3], greater than 10000 nM; in assay [4], 1570 nM; in [5] it was greater than 10000 nM; in [6], greater than 10000 nM; in assay [7], 5210 nM. Further, the Ki in assay [8] is greater than 10000 nM; in assay [9], 238 nM; in assay [10] (setting [17]), greater than 10000 nM; in assay [11] (setting [18]), greater than 10000 nM; in assay [12] it was greater than 10000 nM; in assay [13] it was greater than 10000 nM. Besides, the Ki in [14] (setting [19]) and in [15] was greater than 10000 nM each time. The “HTR Counts (mean ± SEM)” value in assay [2] (0.875 mg/kg IP, duration 5 min) worked out at 4.0 ± 3.3; in [2] (1.75 mg/kg IP, duration 5 min), 9.2 ± 3.7; in assay [2] (3.5 mg/kg IP, duration 5 min), 28.6 ± 4.1; in assay [2] (7 mg/kg IP, duration 5 min), 31.6 ± 4.9; in [2] (14 mg/kg IP, duration 5 min), 24.6 ± 4.7. Moreover, in assay [2], the “activity in the HTR assay (in words)” value is on record as “active”. Further, the ED50 is 2.6 mg/kg in assay [2] (setting [20]) and 8.3 µmol/kg in assay [2] (setting [21]).

As for `C=CCN(CC=C)CCc1c(C)[nH]c2ccc(F)cc12` [5-F-2-Me-DALT, 5-fluoro-2-methyl-N,N-diallyltryptamine], the inhibitory constant (Ki) in [1] is 531 nM; in [3] it was 184 nM; in assay [4], 414 nM; in assay [5] it was greater than 10000 nM; in [6], 396 nM; in assay [7], 983 nM. For the same compound, the inhibition constant (Ki) in [8] is 4420 nM; in [9], 1270 nM; in assay [10] (setting [17]), greater than 10000 nM; in [11] (setting [18]), greater than 10000 nM; in assay [12] it was 1570 nM; in [13], 1400 nM. Besides, the Ki in assay [14] (setting [19]) was greater than 10000 nM; in [15] it was 108 nM. For the same compound, the “HTR Counts (mean ± SEM)” value in assay [2] (setting [16]) was 6.2 ± 1.0; in assay [2] (1.75 mg/kg IP, duration 30 min), 6.8 ± 0.9; in assay [2] (3.5 mg/kg IP, duration 30 min) it was 5.8 ± 2.5; in assay [2] (7 mg/kg IP, duration 30 min) it was 6.4 ± 1.6; in [2] (14 mg/kg IP, duration 30 min), 7.2 ± 0.8. Moreover, the “activity in the HTR assay (in words)” value in assay [2] (listed as 5-fluoro-2-methyl-DALT) is “did not induce the HTR”. The “SERT affinity, fold reduction by 2-methylation” value in [7] is given as roughly 30 fold.

On to `C=CCN(CC=C)CCc1c(C)[nH]c2ccc(OC)cc12` [5-MeO-2-Me-DALT, 5-methoxy-2-methyl-N,N-diallyltryptamine], for which the Ki in assay [1] is 427 nM; in [3], 888 nM; in assay [4], 2400 nM; in [5] it was greater than 10000 nM; in [6], 1240 nM; in assay [7], greater than 10000 nM. Further, the Ki in [8] was greater than 10000 nM; in assay [9] it was 1590 nM; in [10] (setting [17]), greater than 10000 nM; in assay [11] (setting [18]) it was greater than 10000 nM; in assay [12] it was 1200 nM; in assay [13] it was 1130 nM. For the same compound, the values for the Ki in assay [14] (setting [19]) and in assay [15] were greater than 10000 nM and 335 nM, respectively. Besides, the “HTR Counts (mean ± SEM)” value in assay [2] (setting [16]) is given as 4.4 ± 0.2; in assay [2] (1.75 mg/kg IP, duration 30 min), 7.4 ± 2.2; in [2] (3.5 mg/kg IP, duration 30 min), 4.2 ± 1.0; in assay [2] (7 mg/kg IP, duration 30 min), 4.2 ± 0.9; in assay [2] (14 mg/kg IP, duration 30 min), 5.0 ± 1.4. In addition, the “activity in the HTR assay (in words)” value in [2] (listed as 5-methoxy-2-methyl-DALT) was “did not induce the HTR”. The “displacement at 10,000 nM” value in [7] (SERT, [3H]citalopram, at 10,000 nM) is less than 50%.
